In the experiment the target is T1, p300 (Homo sapiens, UniProt Q09472).
T1 construct: host or cells: A549 P300 HiBit cells
As to the kind of experiment: P300 degradation, HiBit technology in A549 P300 HiBit cells (2 h). In kind it is cell-based. To be noted: 2 hrs post treatment; for Dmax: A549, A549 P300 HiBit cells; for DC50: A549 P300 HiBit cells. In outline:
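A549 HiBiT knock-in cells seeded overnight at 37 °C, 5% CO2 in F-12K with 10% heat-inactivated FBS, then given serial dilutions of compound from 10 mM DMSO stocks. Lytic HiBiT detection reagent added for 10 min at room temperature; luminescence read. Potency and Dmax reported.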
For orientation: HiBiT is a short tag that completes a luciferase, so light tracks the accessible tagged protein.

Structures are written as SMILES.

Data on 18 molecules can be found in patent US20250114345A1, “COMPOUNDS AND COMPOSITIONS AS CBP/P300 DEGRADERS AND USES THEREOF” (Oncopia Therapeutics, Inc. d/b/a/ SK Life Science Labs, priority 2023, published 2025).

Broadly, the Dmax is the greatest extent of degradation seen. Lower therefore signals a partial loss of target. In general, DC50 refers to the concentration at which degradation of the target reaches its halfway point. Low readings indicate a more potent degrader, high ones a less potent degrader.

T1 sequence (Q09472 whole entry): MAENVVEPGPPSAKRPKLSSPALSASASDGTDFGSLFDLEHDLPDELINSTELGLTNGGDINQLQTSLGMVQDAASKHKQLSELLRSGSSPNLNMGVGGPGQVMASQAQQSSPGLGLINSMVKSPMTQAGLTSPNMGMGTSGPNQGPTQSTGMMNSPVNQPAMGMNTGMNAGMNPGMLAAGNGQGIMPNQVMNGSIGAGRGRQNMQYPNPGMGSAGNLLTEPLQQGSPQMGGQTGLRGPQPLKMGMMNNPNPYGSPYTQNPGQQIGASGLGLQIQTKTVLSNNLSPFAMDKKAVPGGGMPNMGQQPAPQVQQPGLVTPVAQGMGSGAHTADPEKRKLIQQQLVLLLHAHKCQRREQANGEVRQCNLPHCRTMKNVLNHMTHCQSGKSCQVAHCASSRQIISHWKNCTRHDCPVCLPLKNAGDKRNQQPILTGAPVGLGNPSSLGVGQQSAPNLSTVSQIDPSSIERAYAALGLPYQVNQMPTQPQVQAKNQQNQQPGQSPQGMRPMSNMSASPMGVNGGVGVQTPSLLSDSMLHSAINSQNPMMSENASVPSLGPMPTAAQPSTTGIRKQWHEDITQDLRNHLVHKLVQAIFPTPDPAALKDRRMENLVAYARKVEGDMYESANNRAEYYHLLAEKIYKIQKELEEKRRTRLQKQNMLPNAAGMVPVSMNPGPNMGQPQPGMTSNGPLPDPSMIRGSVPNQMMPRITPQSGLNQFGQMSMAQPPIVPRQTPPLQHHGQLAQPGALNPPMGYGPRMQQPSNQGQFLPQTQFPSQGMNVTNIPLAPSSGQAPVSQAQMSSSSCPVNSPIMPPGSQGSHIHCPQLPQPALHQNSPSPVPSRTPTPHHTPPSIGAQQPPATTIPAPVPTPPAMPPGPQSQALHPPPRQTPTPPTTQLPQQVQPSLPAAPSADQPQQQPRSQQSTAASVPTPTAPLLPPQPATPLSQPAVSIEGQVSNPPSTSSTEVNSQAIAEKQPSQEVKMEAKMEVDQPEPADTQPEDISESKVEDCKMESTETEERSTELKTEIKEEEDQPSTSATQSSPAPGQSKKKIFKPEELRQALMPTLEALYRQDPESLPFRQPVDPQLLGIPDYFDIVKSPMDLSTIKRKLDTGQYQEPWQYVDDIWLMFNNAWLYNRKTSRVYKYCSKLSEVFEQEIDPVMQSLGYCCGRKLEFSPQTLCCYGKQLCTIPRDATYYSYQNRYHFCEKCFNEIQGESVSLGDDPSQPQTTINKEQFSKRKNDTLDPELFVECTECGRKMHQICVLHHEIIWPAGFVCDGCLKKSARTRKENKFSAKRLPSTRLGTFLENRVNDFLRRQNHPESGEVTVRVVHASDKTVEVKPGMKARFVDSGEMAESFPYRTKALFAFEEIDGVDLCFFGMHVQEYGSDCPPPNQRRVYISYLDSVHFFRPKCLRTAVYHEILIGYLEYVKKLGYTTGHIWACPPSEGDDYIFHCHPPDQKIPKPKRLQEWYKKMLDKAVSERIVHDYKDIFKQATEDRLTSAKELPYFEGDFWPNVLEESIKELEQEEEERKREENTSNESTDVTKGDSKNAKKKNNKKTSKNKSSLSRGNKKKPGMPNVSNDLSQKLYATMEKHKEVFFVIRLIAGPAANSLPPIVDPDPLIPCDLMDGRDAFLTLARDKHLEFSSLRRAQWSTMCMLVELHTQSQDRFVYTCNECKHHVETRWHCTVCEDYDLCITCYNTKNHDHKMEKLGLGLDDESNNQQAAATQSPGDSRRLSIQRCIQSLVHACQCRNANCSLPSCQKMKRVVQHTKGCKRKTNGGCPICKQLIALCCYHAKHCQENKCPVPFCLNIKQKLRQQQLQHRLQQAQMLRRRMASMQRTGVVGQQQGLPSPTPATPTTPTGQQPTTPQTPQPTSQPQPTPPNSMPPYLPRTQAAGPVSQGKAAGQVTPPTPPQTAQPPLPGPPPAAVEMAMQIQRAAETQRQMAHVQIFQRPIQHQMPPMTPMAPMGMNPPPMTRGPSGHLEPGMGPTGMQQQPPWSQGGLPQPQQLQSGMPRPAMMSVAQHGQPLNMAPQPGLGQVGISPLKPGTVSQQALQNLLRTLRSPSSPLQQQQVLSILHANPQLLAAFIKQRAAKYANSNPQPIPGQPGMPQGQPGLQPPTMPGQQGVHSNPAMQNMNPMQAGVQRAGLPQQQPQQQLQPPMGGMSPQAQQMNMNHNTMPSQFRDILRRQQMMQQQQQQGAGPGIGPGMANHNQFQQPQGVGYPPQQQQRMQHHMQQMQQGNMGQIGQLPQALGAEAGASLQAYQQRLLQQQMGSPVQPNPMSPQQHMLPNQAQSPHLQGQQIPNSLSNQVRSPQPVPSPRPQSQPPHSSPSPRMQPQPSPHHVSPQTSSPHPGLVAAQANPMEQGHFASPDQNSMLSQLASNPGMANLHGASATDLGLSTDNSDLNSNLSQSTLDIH

The molecule `Cc1cc(-c2ccc(N(C)c3cc(C(C)C)c4c(c3)n(C)c(=O)n4C)cc2Cl)cnc1C(=O)NCC#Cc1cccc(NC2CCC(=O)NC2=O)c1` (stereo not drawn) [Example A44, 5-(2-chloro-4-((7-isopropyl-1,3-dimethyl-2-oxo-2,3-dihydro-1H-benzo[d]imidazol-5-yl)(methyl)amino)phenyl)-N-(3-(3-((2,6-dioxopiperidin-3-yl)amino)phenyl)prop-2-yn-1-yl)-3-methylpicolinamide] showed a Dmax of 60 to 79% and a DC50 of 100 to 999 nM.

`Cn1c(=O)n(C)c2cc(N3CC(C)(C)Oc4nc(-c5ccc(C(=O)NCC#Cc6cc7c(C8CCC(=O)NC8=O)cccc7o6)nc5)ncc43)ccc21` (stereo not drawn) [Example A264, 5-(5-(1,3-dimethyl-2-oxo-2,3-dihydro-1H-benzo[d]imidazol-5-yl)-7,7-dimethyl-6,7-dihydro-5H-pyrimido [4,5-b][1,4]oxazin-2-yl)-N-(3-(4-(2,6-dioxopiperidin-3-yl)benzofuran-2-yl)prop-2-yn-1-yl)picolinamide] had a Dmax above 80% and a DC50 of 1 to 9.9 nM.

On to `CC(C)c1cc(-c2cccc3cc(-c4ccc(C(=O)NCC#Cc5cc6c(c(NC7CCC(=O)NC7=O)c5)OCC6)nc4)ncc23)cc2c1n(C)c(=O)n2C` (stereo not drawn) [Example A32, N-(3-(7-((2,6-Dioxopiperidin-3-yl)amino)-2,3-dihydrobenzofuran-5-yl)prop-2-yn-1-yl)-5-(8-(7-isopropyl-1,3-dimethyl-2-oxo-2,3-dihydro-1H-benzo[d]imidazol-5-yl)isoquinolin-3-yl)picolinamide], for which the Dmax was above 80% and the DC50 was in the range of 1 to 9.9 nM.

As to `Cc1cc2c(N3CCCc4nc(-c5ccc(C(=O)NCC#Cc6cc7c(C8CCC(=O)NC8=O)cccc7o6)nc5)ncc43)cc(C3CC3)cc2n(C)c1=O` (stereo not drawn) [Example B171, 5-(5-(7-cyclopropyl-1,3-dimethyl-2-oxo-1,2-dihydroquinolin-5-yl)-5,6,7,8-tetrahydropyrido [3,2-d]pyrimidin-2-yl)-N-(3-(4-(2,6-dioxo-piperidin-3-yl)benzofuran-2-yl)prop-2-yn-1-yl)picolinamide], the Dmax is above 80% and the DC50 fell in the range of 1 to 9.9 nM.

In turn, `Cc1cc2c(N3CCCc4nc(-c5cnc(C(=O)NCC#Cc6cc7c(C8CCC(=O)NC8=O)cccc7o6)c(Cl)c5)ncc43)cccc2n(C)c1=O` (stereo not drawn) [Example B36, 3-chloro-5-(5-(1,3-dimethyl-2-oxo-1,2-dihydroquinolin-5-yl)-5,6,7,8-tetrahydropyrido [3,2-d]pyrimidin-2-yl)-N-(3-(4-(2,6-dioxo-piperidin-3-yl)benzofuran-2-yl)prop-2-yn-1-yl)picolinamide] had a Dmax above 80% and a DC50 of 1 to 9.9 nM.

Regarding `Cc1cc2c(N3CCOc4cc(-c5ccc(C(=O)NCC#Cc6ccc7occ(C8CCC(=O)NC8=O)c7c6)nc5)c(F)cc43)cc(C3CCOCC3)cc2n(C)c1=O` (stereo not drawn) [Example B99, 5-(4-(1,3-dimethyl-2-oxo-7-(tetrahydro-2H-pyran-4-yl)-1,2-dihydroquinolin-5-yl)-6-fluoro-3,4-dihydro-2H-benzo[b][1,4]oxazin-7-yl)-N-(3-(3-(2,6-dioxopiperidin-3-yl)benzofuran-5-yl)prop-2-yn-1-yl)picolinamide], the Dmax was above 80% and the DC50 is 1 to 9.9 nM.

In the case of `CCc1cc(Oc2ccc(-c3cnc(C(=O)NCC#Cc4cccc(NC5CCC(=O)NC5=O)c4)c(C)c3)nc2)c2cc(C)c(=O)n(C)c2c1` (stereo not drawn) [Example B17, N-(3-(3-((2,6-Dioxopiperidin-3-yl)amino)phenyl)prop-2-yn-1-yl)-5-((7-ethyl-1,3-dimethyl-2-oxo-1,2-dihydroquinolin-5-yl)oxy)-5′-methyl-[2,3′-bipyridine]-6′-carboxamide], the Dmax is below 20% and the DC50 was above 1000 nM.

Regarding `CC(C)c1cc(-c2cccc3cc(-c4ccc(C(=O)NCC#Cc5cnc6cnn(C7CCC(=O)NC7=O)c6c5)nc4)ncc23)cc2c1n(C)c(=O)n2C` (stereo not drawn) [Example A20, N-(3-(1-(2,6-Dioxopiperidin-3-yl)-1H-pyrazolo[4,3-b]pyridin-6-yl)prop-2-yn-1-yl)-5-(8-(7-isopropyl-1,3-dimethyl-2-oxo-2,3-dihydro-1H-benzo[d]imidazol-5-yl)isoquinolin-3-yl)picolinamide], the Dmax lay in the range of 60 to 79% and the DC50 lay within 1 to 9.9 nM.

Consider `CCc1cc(N(C)c2ccc(-c3cnc(C(=O)NCC#Cc4cccc(NC5CCC(=O)NC5=O)c4)c(C)c3)c(C)c2)c2cc(C)c(=O)n(C)c2c1` (stereo not drawn) [Example B15, N-(3-(3-((2,6-Dioxopiperidin-3-yl)amino)phenyl)prop-2-yn-1-yl)-5-(4-((7-ethyl-1,3-dimethyl-2-oxo-1,2-dihydroquinolin-5-yl)(methyl)amino)-2-methylphenyl)-3-methylpicolinamide], for which the Dmax was above 80% and the DC50 lay within 10 to 99 nM.

Molecule `CN1CCN(c2ccc3c(c2)n(C)c(=O)n3C)c2cnc(-c3ccc(C(=O)NCC#Cc4cc5c(C6CCC(=O)NC6=O)nccc5o4)nc3)nc21` (stereo not drawn) [Example A245, 5-(5-(1,3-dimethyl-2-oxo-2,3-dihydro-1H-benzo[d]imidazol-5-yl)-8-methyl-5,6,7,8-tetrahydropteridin-2-yl)-N-(3-(4-(2,6-dioxopiperidin-3-yl)furo[3,2-c]pyridin-2-yl)prop-2-yn-1-yl) picolinamide] registered a Dmax above 80% and a DC50 below 1 nM.

Turning to `COc1cc(-c2ccc(N(C)c3cc(C(C)C)c4c(c3)n(C)c(=O)n4C)cn2)cnc1C(=O)NCC#Cc1cccc(NC2CCC(=O)NC2=O)c1` (stereo not drawn) [Example A49, N-(3-(3-((2,6-dioxopiperidin-3-yl)amino)phenyl)prop-2-yn-1-yl)-5-((7-isopropyl-1,3-dimethyl-2-oxo-2,3-dihydro-1H-benzo [d]imidazol-5-yl) (methyl)amino)-5′-methoxy-[2,3′-bipyridine]-6′-carboxamide], the Dmax was above 80% and the DC50 was in the range of 10 to 99 nM.

Molecule `CC(C)c1cc(N(C)c2cnc(-c3ccc(C(=O)NCC#Cc4ccc5occ(C6CCC(=O)NC6=O)c5c4)nc3)nc2)cc2c1n(C)c(=O)n2C` (stereo not drawn) [Example A106, N-(3-(3-(2,6-dioxo-piperidin-3-yl)benzofuran-5-yl)prop-2-yn-1-yl)-5-(5-((7-isopropyl-1,3-dimethyl-2-oxo-2,3-dihydro-1H-benzo [d]imidazol-5-yl)(methyl)amino)pyrimidin-2-yl)picolinamide] registered a Dmax above 80% and a DC50 of 1 to 9.9 nM.

In turn, `CC(C)c1cc(-c2cccc3cc(-c4ccc(C(=O)NCC#Cc5cnc6ccn(C7CCC(=O)NC7=O)c6c5)nc4)ncc23)cc2c1n(C)c(=O)n2C` (stereo not drawn) [Example A13, N-(3-(1-(2,6-Dioxopiperidin-3-yl)-1H-pyrrolo[3,2-b]pyridin-6-yl)prop-2-yn-1-yl)-5-(8-(7-isopropyl-1,3-dimethyl-2-oxo-2,3-dihydro-1H-benzo[d]imidazol-5-yl)isoquinolin-3-yl)picolinamide] registered a Dmax above 80% and a DC50 of 1 to 9.9 nM.

`Cc1cc(-c2ccc(N(C)c3cc(C4=CCOCC4)c4c(c3)n(C)c(=O)n4C)cn2)cnc1C(=O)NCC#Cc1cccc(NC2CCC(=O)NC2=O)c1` (stereo not drawn) [Example A40, 5-((7-(3,6-dihydro-2H-pyran-4-yl)-1,3-dimethyl-2-oxo-2,3-dihydro-1H-benzo[d]imidazol-5-yl)(methyl)amino)-N-(3-(3-((2,6-dioxopiperidin-3-yl)amino)phenyl)prop-2-yn-1-yl)-5′-methyl-[2,3′-bipyridine]-6′-carboxamide] showed a Dmax above 80% and a DC50 of 1 to 9.9 nM.

The molecule `[2H]C([2H])([2H])N(c1cnc(-c2cnc(C(=O)NCC#Cc3ccc4occ(C5CCC(=O)NC5=O)c4c3)c(C)c2)nc1)c1cc(C(C)C)c2c(c1)n(C)c(=O)n2C` (stereo not drawn) [Example A65, N-(3-(3-(2,6-dioxopiperidin-3-yl)benzofuran-5-yl)prop-2-yn-1-yl)-5-(5-((7-isopropyl-1,3-dimethyl-2-oxo-2,3-dihydro-1H-benzo [d]imidazol-5-yl)(methyl-d3)amino)pyrimidin-2-yl)-3-methylpicolinamide] showed a Dmax above 80% and a DC50 of 1 to 9.9 nM.

`CCc1cc(N(C)c2ccc(-c3cnc(C(=O)NCC#Cc4cccc(NC5CCC(=O)NC5=O)c4)c(C)c3)c(F)c2)c2cc(C)c(=O)n(C)c2c1` (stereo not drawn) [Example B19, N-(3-(3-((2,6-Dioxopiperidin-3-yl)amino)phenyl)prop-2-yn-1-yl)-5-(4-((7-ethyl-1,3-dimethyl-2-oxo-1,2-dihydroquinolin-5-yl)(methyl)amino)-2-fluorophenyl)-3-methylpicolinamide] gave a Dmax above 80% and a DC50 of 10 to 99 nM.

`Cn1c(=O)n(C)c2ncc(N3CCOc4nc(-c5ccc(C(=O)NCC#Cc6cc7c(C8CCC(=O)NC8=O)cccc7o6)nc5)ncc43)cc21` (stereo not drawn) [Example A268, 5-(5-(1,3-dimethyl-2-oxo-2,3-dihydro-1H-imidazo[4,5-b]pyridin-6-yl)-6,7-dihydro-5H-pyrimido[4,5-b] [1,4]oxazin-2-yl)-N-(3-(4-(2,6-dioxopiperidin-3-yl)benzofuran-2-yl)prop-2-yn-1-yl)picolinamide]: the Dmax is 20 to 39% and the DC50 was in the range of 10 to 99 nM.

`CC(C)c1cc(C(F)(F)c2ccc(-c3ccc(C(=O)NCC#Cc4ccc5occ(C6CCC(=O)NC6=O)c5c4)nc3)nc2)cc2c1n(C)c(=O)n2C` (stereo not drawn) [Example A81, 5-(difluoro(7-isopropyl-1,3-dimethyl-2-oxo-2,3-dihydro-1H-benzo[d]imidazol-5-yl)methyl)-N-(3-(3-(2,6-dioxopiperidin-3-yl)benzofuran-5-yl)prop-2-yn-1-yl)-[2,3′-bipyridine]-6′-carboxamide] had a Dmax below 20% and a DC50 above 1000 nM.
